Article PMC5218480 (PLoS ONE, 2017)

Tested on: MV-4-11 cells
Assay: Gene expression microarray analysis (Affymetrix PrimeView) and GSEA
Format: cell-based, human
Set-up: RFU PODN (11730768_x_at) / Fold change /veh PODN (11730768_x_at) / RFU LINC00158 (11744669_a_at) / Fold change /veh LINC00158 (11744669_a_at) / RFU DUSP10 (11751237_a_at) / Fold change /veh DUSP10 (11751237_a_at) / RFU ID3 (11757404_x_at) / Fold change /veh ID3 (11757404_x_at) / RFU PLEKHG5 (11737974_s_at) / Fold change /veh PLEKHG5 (11737974_s_at) / RFU LRRC4B (11730491_at) / Fold change /veh LRRC4B (11730491_at) / RFU GIMAP4 (11747438_a_at) / Fold change /veh GIMAP4 (11747438_a_at) / RFU KRT8 (11758183_x_at) / Fold change /veh KRT8 (11758183_x_at) / RFU CNN1 (11734310_a_at) / Fold change /veh CNN1 (11734310_a_at) / RFU VPS37D (11726825_at) / Fold change /veh VPS37D (11726825_at) / RFU C10orf10 (11716522_x_at) / Fold change /veh C10orf10 (11716522_x_at) / RFU KIR2DL2 /// KIR2DL4 /// KIR2DL5A /// KIR2DL5B /// KIR2DS1 /// KIR2DS2 /// KIR2DS3 /// KIR2DS4 /// KIR3DL3 /// KIR3DL3 /// KIR3DS1 (11738374_at) / Fold change /veh KIR2DL2 /// KIR2DL4 /// KIR2DL5A /// KIR2DL5B /// KIR2DS1 /// KIR2DS2 /// KIR2DS3 /// KIR2DS4 /// KIR3DL3 /// KIR3DL3 /// KIR3DS1 (11738374_at) / RFU C1QL1 (11718748_at) / Fold change /veh C1QL1 (11718748_at) / RFU TMPRSS4 (11747572_a_at) / Fold change /veh TMPRSS4 (11747572_a_at) / RFU HAMP (11756126_x_at) / Fold change /veh HAMP (11756126_x_at) / RFU RNFT2 (11725882_a_at) / Fold change /veh RNFT2 (11725882_a_at) / RFU NR4A2 (11747474_a_at) / Fold change /veh NR4A2 (11747474_a_at) / RFU ABCC12 (11746883_a_at) / Fold change /veh ABCC12 (11746883_a_at) / RFU TMEM136 (11760407_x_at) / Fold change /veh TMEM136 (11760407_x_at) / RFU CLDN22 /// WWC2 (11732394_at) / Fold change /veh CLDN22 /// WWC2 (11732394_at) / RFU HLA-DPB1 (11760878_x_at) / Fold change /veh HLA-DPB1 (11760878_x_at) / RFU SPINT1 (11716480_a_at) / Fold change /veh SPINT1 (11716480_a_at) / RFU GAP43 (11754022_s_at) / Fold change /veh GAP43 (11754022_s_at) / RFU A4GNT (11735810_at) / Fold change /veh A4GNT (11735810_at) / RFU PRB3 (11715151_x_at) / Fold change /veh PRB3 (11715151_x_at) / RFU TUBB4B (11761932_at) / Fold change /veh TUBB4B (11761932_at) / RFU CAPN14 (11732068_a_at) / Fold change /veh CAPN14 (11732068_a_at) / RFU TMCC2 (11721928_a_at) / Fold change /veh TMCC2 (11721928_a_at) / RFU IRGQ (11745062_a_at) / Fold change /veh IRGQ (11745062_a_at) / RFU FAM174B (11720279_a_at) / Fold change /veh FAM174B (11720279_a_at) / RFU TMPRSS4 (11748680_a_at) / Fold change /veh TMPRSS4 (11748680_a_at) / RFU FAM212B (11763350_a_at) / Fold change /veh FAM212B (11763350_a_at) / RFU PLEKHG5 (11743358_a_at) / Fold change /veh PLEKHG5 (11743358_a_at) / RFU ZSCAN30 (11745921_a_at) / Fold change /veh ZSCAN30 (11745921_a_at) / RFU CMKLR1 (11741424_a_at) / Fold change /veh CMKLR1 (11741424_a_at) / RFU LOC101060620 /// MAPK8IP1 (11723275_at) / Fold change /veh LOC101060620 /// MAPK8IP1 (11723275_at) / RFU SPTSSB (11747773_x_at) / Fold change /veh SPTSSB (11747773_x_at) / RFU PRSS12 (11739890_at) / Fold change /veh PRSS12 (11739890_at) / RFU BIN1 (11741810_x_at) / Fold change /veh BIN1 (11741810_x_at) / RFU WNT11 (11732464_a_at) / Fold change /veh WNT11 (11732464_a_at) / RFU C10orf10 (11716521_a_at) / Fold change /veh C10orf10 (11716521_a_at) / RFU C5orf56 (11738089_at) / Fold change /veh C5orf56 (11738089_at) / RFU CYB561 (11721691_x_at) / Fold change /veh CYB561 (11721691_x_at) / RFU ANKRD19P (11752326_a_at) / Fold change /veh ANKRD19P (11752326_a_at) / RFU OR2T12 /// OR2T33 /// OR2T8 (11738714_s_at) / Fold change /veh OR2T12 /// OR2T33 /// OR2T8 (11738714_s_at) / RFU VCAN (11748164_a_at) / Fold change /veh VCAN (11748164_a_at) / RFU JSRP1 (11732532_at) / Fold change /veh JSRP1 (11732532_at) / RFU KRTAP10-11 (11738290_x_at) / Fold change /veh KRTAP10-11 (11738290_x_at) / RFU MYO3A (11730013_a_at) / Fold change /veh MYO3A (11730013_a_at) / RFU EBF3 (11725865_a_at) / Fold change /veh EBF3 (11725865_a_at) / RFU CAMK2N1 (11719241_x_at) / Fold change /veh CAMK2N1 (11719241_x_at) / RFU C5orf56 (11738088_a_at) / Fold change /veh C5orf56 (11738088_a_at) / RFU OLFML3 (11715873_a_at) / Fold change /veh OLFML3 (11715873_a_at) / RFU LOC100653217 /// NTM (11731650_a_at) / Fold change /veh LOC100653217 /// NTM (11731650_a_at) / RFU MAPK11 (11762145_a_at) / Fold change /veh MAPK11 (11762145_a_at) / RFU FIZ1 (11724087_x_at) / Fold change /veh FIZ1 (11724087_x_at) / RFU OASL (11726364_x_at) / Fold change /veh OASL (11726364_x_at) / RFU SOX15 (11748057_x_at) / Fold change /veh SOX15 (11748057_x_at) / RFU CD79A (11719716_a_at) / Fold change /veh CD79A (11719716_a_at) / RFU HIST1H1D (11736915_at) / Fold change /veh HIST1H1D (11736915_at) / RFU CASKIN2 (11723855_a_at) / Fold change /veh CASKIN2 (11723855_a_at) / RFU LOC730098 (11760151_x_at) / Fold change /veh LOC730098 (11760151_x_at) / RFU OR4N2 (11742367_at) / Fold change /veh OR4N2 (11742367_at) / RFU PRRT2 (11749266_a_at) / Fold change /veh PRRT2 (11749266_a_at) / RFU SNX32 (11753110_a_at) / Fold change /veh SNX32 (11753110_a_at) / RFU CDHR5 (11726645_a_at) / Fold change /veh CDHR5 (11726645_a_at) / RFU RCAN1 (11760418_a_at) / Fold change /veh RCAN1 (11760418_a_at) / RFU FAM167A (11723789_a_at) / Fold change /veh FAM167A (11723789_a_at) / RFU FAM26E (11764081_at) / Fold change /veh FAM26E (11764081_at) / RFU ISYNA1 (11749810_s_at) / Fold change /veh ISYNA1 (11749810_s_at) / RFU ACY1 (11761880_at) / Fold change /veh ACY1 (11761880_at) / RFU 11764098_at / Fold change /veh 11764098_at / RFU SAMD14 (11745864_x_at) / Fold change /veh SAMD14 (11745864_x_at) / RFU NPB (11741838_a_at) / Fold change /veh NPB (11741838_a_at) / RFU TMPRSS6 (11731388_a_at) / Fold change /veh TMPRSS6 (11731388_a_at) / RFU KRTAP10-2 (11738614_at) / Fold change /veh KRTAP10-2 (11738614_at) / RFU ARHGAP8 /// PRR5-ARHGAP8 (11727945_x_at) / Fold change /veh ARHGAP8 /// PRR5-ARHGAP8 (11727945_x_at) / RFU KRTAP5-7 /// NADSYN1 (11734609_at) / Fold change /veh KRTAP5-7 /// NADSYN1 (11734609_at) / RFU RASL12 (11751679_a_at) / Fold change /veh RASL12 (11751679_a_at) / RFU CDKN2B (11736163_a_at) / Fold change /veh CDKN2B (11736163_a_at) / RFU PRF1 (11729649_at) / Fold change /veh PRF1 (11729649_at) / RFU, ZNF638 /// ZNF638-IT1 / Fold change vs veh, ZNF638 /// ZNF638-IT1 / RFU, PANK3 / Fold change vs veh, PANK3 / RFU, SH3YL1 / Fold change vs veh, SH3YL1 / RFU, ZEB2 / Fold change vs veh, ZEB2 / RFU, NRIP1 / Fold change vs veh, NRIP1 / RFU, PTTG1IP / Fold change vs veh, PTTG1IP / RFU, CAPN2 / Fold change vs veh, CAPN2 / RFU, MED14 / Fold change vs veh, MED14 / RFU, SNORA58 / Fold change vs veh, SNORA58 / RFU, C1orf63 / Fold change vs veh, C1orf63 / RFU, LRRFIP1 / Fold change vs veh, LRRFIP1 / RFU, NDUFAF7 / Fold change vs veh, NDUFAF7 / RFU, SLC12A2 / Fold change vs veh, SLC12A2 / RFU, IBTK / Fold change vs veh, IBTK / RFU, ESF1 / Fold change vs veh, ESF1 / Fold change vs veh, TMEM50B / RFU, TAOK1 / Fold change vs veh, TAOK1 / RFU, ACBD3 / Fold change vs veh, ACBD3 / RFU, TMA16 / Fold change vs veh, TMA16 / RFU, RWDD3 / Fold change vs veh, RWDD3 / RFU, BCAT1 / Fold change vs veh, BCAT1 / RFU, EDEM3 / Fold change vs veh, EDEM3 / RFU, TMEM33 / Fold change vs veh, TMEM33 / RFU, WDR75 / Fold change vs veh, WDR75 / RFU, AHCTF1 / Fold change vs veh, AHCTF1 / RFU, TFRC / Fold change vs veh, TFRC / RFU, ZDHHC17 / Fold change vs veh, ZDHHC17 / RFU, NOM1 / Fold change vs veh, NOM1 / RFU, ARL8B / Fold change vs veh, ARL8B / RFU, ZBTB11 / Fold change vs veh, ZBTB11 / RFU, TAMM41 / Fold change vs veh, TAMM41 / RFU, KIAA1704 /// LOC100996395 / Fold change vs veh, KIAA1704 /// LOC100996395 / RFU, ING1 / Fold change vs veh, ING1 / RFU, TRMT61B / Fold change vs veh, TRMT61B / RFU, FUBP3 / Fold change vs veh, FUBP3 / RFU, TP53 / Fold change vs veh, TP53 / RFU, TNKS2 / Fold change vs veh, TNKS2 / RFU, ZFP14 / Fold change vs veh, ZFP14 / RFU, ACTR2 / Fold change vs veh, ACTR2 / RFU, PPP3R1 / Fold change vs veh, PPP3R1 / RFU, PIK3R1 / Fold change vs veh, PIK3R1 / RFU, HNRNPA1 / Fold change vs veh, HNRNPA1 / RFU, RNF170 / Fold change vs veh, RNF170 / RFU, ZNF28 / Fold change vs veh, ZNF28 / RFU, RNGTT / Fold change vs veh, RNGTT / RFU, OGT / Fold change vs veh, OGT / RFU, BRD1 / Fold change vs veh, BRD1 / RFU, MARS / Fold change vs veh, MARS / RFU, ZNF655 / Fold change vs veh, ZNF655 / RFU, FAHD1 / Fold change vs veh, FAHD1 / RFU, BDP1 / Fold change vs veh, BDP1 / RFU, LRRCC1 / Fold change vs veh, LRRCC1 / RFU, ARID1A / Fold change vs veh, ARID1A / RFU, ZNF146 / Fold change vs veh, ZNF146 / RFU, ZNF330 / Fold change vs veh, ZNF330 / RFU, GPN3 / Fold change vs veh, GPN3 / RFU, C9orf123 / Fold change vs veh, C9orf123 / RFU, N4BP2L2 / Fold change vs veh, N4BP2L2 / RFU, ARFIP1 / Fold change vs veh, ARFIP1 / RFU, FAM179B / Fold change vs veh, FAM179B / RFU, BCL10 / Fold change vs veh, BCL10 / RFU, UHRF1BP1L / Fold change vs veh, UHRF1BP1L / RFU, BET1 / Fold change vs veh, BET1 / RFU, CNOT2 / Fold change vs veh, CNOT2 / RFU, ZNF268 / Fold change vs veh, ZNF268 / Fold change vs veh, ZNF507 / RFU, DGCR2 / Fold change vs veh, DGCR2 / RFU, WDSUB1 / Fold change vs veh, WDSUB1 / Fold change vs veh, HSP90B1 /// MIR3652 / RFU, ADSS / Fold change vs veh, ADSS / RFU, GK / Fold change vs veh, GK / RFU, ZNF148 / Fold change vs veh, ZNF148 / RFU, TAF9 / Fold change vs veh, TAF9 / RFU, SLC1A5 / Fold change vs veh, SLC1A5 / RFU, SLMO2 / Fold change vs veh, SLMO2 / RFU, ABCC4 / Fold change vs veh, ABCC4 / RFU, LOC101060439 /// RAP1B / Fold change vs veh, LOC101060439 /// RAP1B / RFU, RFX7 / Fold change vs veh, RFX7 / RFU, GTPBP10 / Fold change vs veh, GTPBP10 / RFU, CNEP1R1 / Fold change vs veh, CNEP1R1 / RFU, BIVM-ERCC5 /// ERCC5 / Fold change vs veh, BIVM-ERCC5 /// ERCC5 / RFU, ILF3 / Fold change vs veh, ILF3 / RFU 11762660_at / Fold change /veh 11762660_at / RFU VCAN (11757783_s_at) / Fold change /veh VCAN (11757783_s_at) / RFU DDX43 (11728927_at) / Fold change /veh DDX43 (11728927_at) / RFU KRT8 (11758188_x_at) / Fold change /veh KRT8 (11758188_x_at) / RFU NKD1 (11759106_at) / Fold change /veh NKD1 (11759106_at) / RFU SRD5A1 (11742802_a_at) / Fold change /veh SRD5A1 (11742802_a_at) / RFU TPSAB1 /// TPSB2 (11721975_s_at) / Fold change /veh TPSAB1 /// TPSB2 (11721975_s_at) / RFU GSTM3 (11746129_a_at) / Fold change /veh GSTM3 (11746129_a_at) / RFU IL23R (11737362_x_at) / Fold change /veh IL23R (11737362_x_at) / RFU TMEM51 (11727254_a_at) / Fold change /veh TMEM51 (11727254_a_at) / RFU PIWIL2 (11732686_x_at) / Fold change /veh PIWIL2 (11732686_x_at) / RFU ORM1 (11744905_x_at) / Fold change /veh ORM1 (11744905_x_at) / RFU CCDC152 (11743942_at) / Fold change /veh CCDC152 (11743942_at) / RFU ECM1 (11717891_a_at) / Fold change /veh ECM1 (11717891_a_at) / RFU IL23R (11748794_a_at) / Fold change /veh IL23R (11748794_a_at) / RFU TNFAIP8L3 (11732012_x_at) / Fold change /veh TNFAIP8L3 (11732012_x_at) / RFU MBOAT4 (11741988_at) / Fold change /veh MBOAT4 (11741988_at) / RFU 11764193_at / Fold change /veh 11764193_at / RFU TMEM53 (11763286_at) / Fold change /veh TMEM53 (11763286_at) / RFU MAGEB2 (11727129_at) / Fold change /veh MAGEB2 (11727129_at) / RFU TMEM200A (11744735_a_at) / Fold change /veh TMEM200A (11744735_a_at) / RFU CCDC152 (11751479_a_at) / Fold change /veh CCDC152 (11751479_a_at) / RFU FAM211A (11726209_a_at) / Fold change /veh FAM211A (11726209_a_at) / RFU RGS16 (11746705_a_at) / Fold change /veh RGS16 (11746705_a_at) / RFU VCAN (11755009_s_at) / Fold change /veh VCAN (11755009_s_at) / RFU RHOB (11743442_s_at) / Fold change /veh RHOB (11743442_s_at) / RFU RGS16 (11720943_a_at) / Fold change /veh RGS16 (11720943_a_at) / RFU RGS16 (11720944_at) / Fold change /veh RGS16 (11720944_at) / RFU, VPS4B / Fold change vs veh, VPS4B / RFU, CREB1 / Fold change vs veh, CREB1 / RFU, DNAJC13 / Fold change vs veh, DNAJC13 / RFU, GNAQ / Fold change vs veh, GNAQ / RFU, CDK5R1 / Fold change vs veh, CDK5R1 / RFU, ZRANB3 / Fold change vs veh, ZRANB3 / RFU, CUL4A / Fold change vs veh, CUL4A / RFU, CCNY / Fold change vs veh, CCNY / RFU, UFL1 / Fold change vs veh, UFL1 / RFU, COG3 / Fold change vs veh, COG3 / RFU, DIAPH2 / Fold change vs veh, DIAPH2 / RFU, SKA2 / Fold change vs veh, SKA2 / RFU, AFF3 / Fold change vs veh, AFF3 / RFU, LMF1 / Fold change vs veh, LMF1 / RFU, IPO11 / Fold change vs veh, IPO11 / RFU, DFFB / Fold change vs veh, DFFB / RFU, FOXP1 / Fold change vs veh, FOXP1 / RFU, CARD8 / Fold change vs veh, CARD8 / RFU, STRN3 / Fold change vs veh, STRN3 / RFU, ADK / Fold change vs veh, ADK / RFU, RASSF2 / Fold change vs veh, RASSF2 / RFU, WIPF1 / Fold change vs veh, WIPF1 / RFU, LARP1B / Fold change vs veh, LARP1B / RFU, RASA1 / Fold change vs veh, RASA1 / RFU, RB1 / Fold change vs veh, RB1 / RFU, PPFIA1 / Fold change vs veh, PPFIA1 / RFU, MAT2A / Fold change vs veh, MAT2A / RFU, CCT5 / Fold change vs veh, CCT5 / RFU, WDR92 / Fold change vs veh, WDR92 / RFU, CUX1 / Fold change vs veh, CUX1 / RFU, TTC7A / Fold change vs veh, TTC7A / RFU, TMEM135 / Fold change vs veh, TMEM135 / RFU, DEPTOR / Fold change vs veh, DEPTOR / RFU, CPM / Fold change vs veh, CPM / RFU, DNAJB6 / Fold change vs veh, DNAJB6 / RFU, CACNA2D3 / Fold change vs veh, CACNA2D3 / RFU, DTX4 / Fold change vs veh, DTX4 / RFU, TFCP2 / Fold change vs veh, TFCP2 / RFU, GMCL1 /// GMCL1P1 / Fold change vs veh, GMCL1 /// GMCL1P1 / RFU, AEBP2 / Fold change vs veh, AEBP2 / RFU, SNHG1 /// SNORD22 /// SNORD25 /// SNORD26 /// SNORD27 /// SNORD28 /// SNORD29 /// SNORD31 / Fold change vs veh, SNHG1 /// SNORD22 /// SNORD25 /// SNORD26 /// SNORD27 /// SNORD28 /// SNORD29 /// SNORD31 / Fold change (Aza/veh), C12orf56 (ProbeSet 11735607_a_at) / Fold change (ACY-1035/veh), C12orf56 (ProbeSet 11735607_a_at) / Fold change (Aza/veh), FGFR1OP (ProbeSet 11751329_s_at) / Fold change (ACY-1035/veh), FGFR1OP (ProbeSet 11751329_s_at) / Fold change (Aza/veh), VPS36 (ProbeSet 11739960_a_at) / Fold change (ACY-1035/veh), VPS36 (ProbeSet 11739960_a_at) / RFU SYPL1 (11715823_x_at) / Fold change /veh SYPL1 (11715823_x_at) / RFU IGFBP7 (11715501_s_at) / Fold change /veh IGFBP7 (11715501_s_at) / RFU REEP3 (11722064_at) / Fold change /veh REEP3 (11722064_at) / RFU IGLL1 (11728026_x_at) / Fold change /veh IGLL1 (11728026_x_at): dose or concentration left out as unconfirmed
Conditions: ProbeSet 11732370_a_at; LIST D

Nc1ncn([C@@H]2O[C@H](CO)[C@@H](O)[C@H]2O)c(=O)n1 [azacitidine]
Fold change vs veh, CUX1: 0.72
